In patent US11325937B2, “Glycoside compound and preparation method therefor, composition, application, and intermediate” (SHANGHAI HUTCHISON PHARMACEUTICALS LIMITED, priority 2018, dated 2022):

Assays:
[1] = system: rats with middle cerebral artery occlusion (MCAO); test: Acute cerebral infarction model in rats with middle cerebral artery occlusion (MCAO); type: in vivo, male SD rats; conditions: for ED50: Rattus norvegicus, ip, 72 h, intraperitoneal injection, TTC staining after 3 days, read-out: ED50 for infarction inhibition rate (%); for Longa nerve scoring, protective effect on nerves (in words): FIG. 5
How it was run: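 Male SD rats (280-320 g) with thread-occlusion MCAO; compound given i.p. 2 h pre-surgery and every 24 h after, 5 rats/group. At day 3, TTC-stained brain sections gave infarction rate and inhibition rate vs model, with ED50 from dose-response; body weight, Longa neuro score, brain water content and Evans Blue BBB permeability also assessed.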

VEGF-A mRNA = test: Sponge implanted animal model of inflammatory angiogenesis: VEGF-A mRNA expression; type: in vivo, male C57/BL6 mice; conditions: 2 weeks; for activity in promoting VEGF-A mRNA expression compared with Salvianolate (in words): positive control Salvianolate 60 mg/kg/d, sponge implanted mice
Excerpt: The target pro-angiogenic compounds TG-052, TG-053, TG-054, TG-028, and TG-055 obtained in Effect Example 1 that perform well at the cellular level were further screened for the active molecules that promote VEGF-A mRNA expression in the “sponge implanted animal model” of inflammatory angiogenesis. […] This model can well reflect the expression of VEGF-A mRNA in macrophages recruited around inflammation.
A sponge implanted mouse model was established following the method as described in Zhang J, Modi Y, and Yarovinsky T, et al. Macrophage β2 integrin-mediated, HuR-dependent stabilization of angiogenic factor-encoding mRNAs in inflammatory angiogenesis. [J]. American Journal of Pathology, 2012. 180(4): 1751-1760. The mice used in the present invention was male C57/BL6 mice aged 6-8 weeks and weighing 20-25 g, purchased from Shanghai SLAC Laboratory Animal Co., Ltd, Production License No: SCXK (Shanghai) 2013-0016. The compound screened in Effect Example 1 was weighed according to the amount intended to be used in two weeks, and then mixed with a gel matrix and a solvent to prepare a sustained-release gel of the compound (see Patent Application No.: CN201610168493.9 for the details of the preparation method of the sustained-release gel and the model establishment and detection methods). The specific steps were as follows. A certain amount of the compound obtained in Effect Example 1 was weighed into a 1.5 mL EP tube, and then a certain amount of poly-L-lactic acid (PLLA) with a weight average molecular weight of less than 10,000 was weighed and mixed with the compound (at a weight ratio of the compound to PLLA of 0.5:1 to 2:1). Finally a certain amount of DMSO (less than 100 microliters) was added, spun, mixed well, and then sealed with a sealing film. After continuous ultrasonication at 200 W and 25° C. for 5 h, a sustained-release gel of the compound was obtained, which was stored at 4° C. for later use.
The prepared sustained-release gel can release the drug completely within 2 weeks. The sustained-release gel and sponge were both subcutaneously implanted in the mice at the back. After 2 weeks, the sponge was taken out, and the residual tissue and fur were removed. The sponge was transferred to a cell culture plate containing 10 mL of DMEM medium containing collagenase (Collagenase:DMEM=10 mg/10 mL), cut, and incubated for 1 h in a cell incubator. Then the culture medium containing sponge debris was filtered, and the resulting filtrate was centrifuged. The supernatant was discarded, and 500 μL of Trizol reagent was added to the pellet, and mixed uniformly by blowing. Then the liquid was transferred to a 1.5 mL EP tube, and stored at −80° C. RNA was extracted according to a conventional method, and the RNA concentration was determined using a microvolume nucleic acid and protein analyzer (Nanodrop2000c). The required volume V of RNA was calculated according to the RNA concentration, and the RNA reverse transcription reaction system was prepared according to Table 1. Then RNA reverse transcription (cDNA synthesis) was carried out according to the conditions described in Table 2. The resulting cDNA was used to prepare a fluorescence quantitative qPCR reaction solution according to Table 3. The fluorescence quantitative qPCR reaction conditions were set according to Table 4, and the fluorescence quantitative PCR reaction was performed using cDNA from the reverse transcription reaction as a template. The relative expression level 2^−ΔΔCt of the target gene was calculated from the Ct value of each sample with the blank group as a control and β-Actin as an internal reference. The expression level of VEGF-A mRNA in the cells extracted from the sponge was observed after 2 weeks. […]

Question: Which “effect on inhibiting cerebral infarction (in words)” value ([1]; MCAO, compared with the control drugs) does the source give for `COc1ccc(CCCCO[C@@H]2O[C@H](CO)[C@@H](O)[C@H](O)[C@H]2O)cc1` [TG-028] here?
Answer: most potent effect on inhibiting cerebral infarction in rats

Question: And the ED50 ([1]; MCAO)?
Answer: 2.61 mg/kg

Question: And the “water content in brain, effect on reducing cerebral edema (in words)” value ([1]; TG-028 5 mg/Kg, three days after MCAO, FIG. 6A)?
Answer: better effect on reducing cerebral edema after acute brain injury of MCAO in rats than Edaravone, Clopidogrel bisulfate, and Salvianolate

Question: And the “integrity of blood-brain barrier, Evans Blue (in words)” value ([1]; TG-028 5 mg/Kg, three days after MCAO, FIG. 6B)?
Answer: better protective effect on blood-brain barrier after acute brain injury of MCAO in rats than Edaravone and Salvianolate

Question: What about the “Longa nerve scoring, protective effect on nerves (in words)” value ([1]; three days after MCAO) of the same molecule?
Answer: equivalent to that of Edaravone, Clopidogrel bisulfate, and Salvianolate

Question: And the “rate of body weight change, protection (in words)” value ([1]; three days after brain injury, FIG. 3)?
Answer: significant protection for rats in terms of the body weight after brain injury

Question: And the “VEGF-A mRNA expression level relative to blank control without drugs” value (VEGF-A mRNA; 11.74 mg/kg/d, sustained-release gel, mice)?
Answer: more than 6 times

Question: And the “VEGF-A mRNA expression level relative to blank control without drugs” value (VEGF-A mRNA; 23.48 mg/kg/d, sustained-release gel, mice)?
Answer: more than 6 times

Question: And the “activity in promoting VEGF-A mRNA expression compared with Salvianolate (in words)” value (VEGF-A mRNA)?
Answer: significantly higher than that of Salvianolate

Question: Which ED50 ([1]; MCAO) does the source give for `OC[C@H]1O[C@@H](OCCc2ccccc2)[C@H](O)[C@@H](O)[C@@H]1O` [TG-055] here?
Answer: 65.3 mg/kg

Question: And the “Longa nerve scoring, protective effect on nerves (in words)” value ([1]; three days after MCAO)?
Answer: equivalent to that of Edaravone, Clopidogrel bisulfate, and Salvianolate

Question: What about the “increase of expression level of VEGF-A mRNA compared with blank control without drugs” value (VEGF-A mRNA; 19.48 mg/kg/d, sustained-release gel, mice) of the same molecule?
Answer: about 3 times

Question: And the “activity in promoting VEGF-A mRNA expression compared with Salvianolate (in words)” value (VEGF-A mRNA)?
Answer: comparable to that of Salvianolate
